According to patent US20200016159A1, “N3-CYCLICALLY SUBSTITUTED THIENOURACILS AND USE THEREOF” (Bayer Aktiengesellschaft, priority 2016, published 2020):

target: T1, human adenosine A2b receptor (Homo sapiens, UniProt P29275); test: Cellular in vitro reporter gene test for A2b receptor activity (antagonism of NECA); format: cell-based; set-up: expressed in transfected cells; host or cells: CHO-K1 (Chinese hamster ovary) with CRE-luciferase reporter; conditions: recombinant CHO-K1 cells, CRE-luciferase reporter, co-incubation with EC50 concentration of NECA, 3 hours
T1 sequence (P29275 1-332): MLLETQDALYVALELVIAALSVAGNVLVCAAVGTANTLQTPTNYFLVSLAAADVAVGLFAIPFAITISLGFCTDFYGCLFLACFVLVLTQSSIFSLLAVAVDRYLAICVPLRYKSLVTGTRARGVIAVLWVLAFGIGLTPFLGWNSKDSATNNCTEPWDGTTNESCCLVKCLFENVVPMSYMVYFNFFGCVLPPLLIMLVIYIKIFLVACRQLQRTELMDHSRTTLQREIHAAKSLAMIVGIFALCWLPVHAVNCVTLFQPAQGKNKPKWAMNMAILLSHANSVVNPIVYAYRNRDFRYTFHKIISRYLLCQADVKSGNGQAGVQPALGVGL
Experimental: The identification of selective antagonists of the human adenosine A2b receptor and the quantification of the efficacy and selectivity of the compounds according to the invention was carried out with the aid of recombinant cell lines for the human adenosine receptors A1, A2a, A2b and A3. These cell lines were originally derived from an ovarepithelial cell of the hamster (Chinese Hamster Ovary, CHO-K1, American Type Culture Collection, Manassas, Va. 20108, USA). In addition to the respective recombinantly expressed adenosine receptor for testing the efficacy at the A1, A2a and A2b receptors, the cell lines contain a reporter gene construct where expression of the firefly (Photinus pyralis) luciferase is under the control of a promoter which can be activated via intracellular signal cascades by stimulation of the receptors with the (not subtype-selective) adenosine receptor agonist NECA (5′-N-ethylcarboxamidoadenosine) [S. J. Hill, J. G. Baker, S. Rhees, Curr. Opin. Pharmacol. 1, 526-532 (2001)].
In the case of the A2a and A2b cell lines, this is a minimal promoter having a plurality of cAMP-responsive elements (CRE). Stimulation of the Gs-coupled A2b or A2a receptors by NECA ultimately leads, via formation of cAMP, to CRE-dependent induction of luciferase expression, which is detected 3 hours after the start of the incubation with NECA using a detection solution in a suitable luminometer. For testing the antagonists, initially, in a pre-experiment, the concentration of NECA which, at the test day in question, results in half-maximum stimulation of luciferase expression (EC50 concentration) is determined. By joint incubation of this EC50 concentration of NECA with the substances to be tested, it is possible to determine their antagonistic activity.
Table 1 below lists the IC50 values from the A2b receptor assay for individual working examples (in some cases as means of a plurality of independent individual determinations and rounded to two significant figures; it may also be the case here that various independent preparations of the respective working example have been used): […]

In order of falling IC50:
1. Cc1c(Cn2nc[nH]c2=O)sc2c1c(=O)n(C1CC1)c(=O)n2CC1CC1(F)F (racemic) [Example 20, 3-Cyclopropyl-1-[(2,2-difluorocyclopropyl)methyl]-5-methyl-6-[(5-oxo-4,5-dihydro-1H-1,2,4-triazol-1-yl)methyl]thieno[2,3-d]pyrimidine-2,4(1H,3H)-dione (racemate)]  130 nM
2. COCCn1c(=O)n([C@H]2C[C@@H](OC)C2)c(=O)c2c(C)c(CN3CCNC3=NC(=O)OC)sc21 [Example 161, Methyl [1-{[3-(cis-3-methoxycyclobutyl)-1-(2-methoxyethyl)-5-methyl-2,4-dioxo-1,2,3,4-tetrahydrothieno[2,3-d]pyrimidin-6-yl]methyl}imidazolidin-2-ylidene]carbamate]  130 nM
3. Cc1c(Cn2nc[nH]c2=O)sc2c1c(=O)n(C1CC1)c(=O)n2CCCF [Example 197, 3-Cyclopropyl-1-(3-fluoropropyl)-5-methyl-6-[(5-oxo-4,5-dihydro-1H-1,2,4-triazol-1-yl)methyl]thieno[2,3-d]pyrimidine-2,4(1H,3H)-dione]  120 nM
4. CCOCCn1c(=O)n(C2(C)CC2)c(=O)c2c(C)c(CN3CCNC3=O)sc21 [Example 77, 1-(2-Ethoxyethyl)-5-methyl-3-(1-methylcyclopropyl)-6-[(2-oxoimidazolidin-1-yl)methyl]thieno[2,3-d]pyrimidine-2,4(1H,3H)-dione]  77 nM
5. CCOCCn1c(=O)n(C2CC2)c(=O)c2c(C)c(CN3CCNC3=O)sc21 [Example 31, 3-Cyclopropyl-1-(2-ethoxyethyl)-5-methyl-6-[(2-oxoimidazolidin-1-yl)methyl]thieno[2,3-d]pyrimidine-2,4(1H,3H)-dione]  67 nM
6. COCCn1c(=O)n(C2CC(C)(C)C2)c(=O)c2c(C)c(CN3CCNC(=O)C3=O)sc21 [Example 172, 3-(3,3-Dimethylcyclobutyl)-6-[(2,3-dioxopiperazin-1-yl)methyl]-1-(2-methoxyethyl)-5-methylthieno[2,3-d]pyrimidine-2,4(1H,3H)-dione]  36 nM
7. Cc1c(Cn2nc[nH]c2=O)sc2c1c(=O)n(C1CC1)c(=O)n2CC1CCC1 [Example 18, 1-(Cyclobutylmethyl)-3-cyclopropyl-5-methyl-6-[(5-oxo-4,5-dihydro-1H-1,2,4-triazol-1-yl)methyl]thieno[2,3-d]pyrimidine-2,4(1H,3H)-dione]  25 nM
8. COC(=O)N=C1NCCN1Cc1sc2c(c1C)c(=O)n([C@H]1C[C@@H](OC)C1)c(=O)n2CCC(F)(F)F [Example 156, Methyl [1-{[3-(cis-3-methoxycyclobutyl)-5-methyl-2,4-dioxo-1-(3,3,3-trifluoropropyl)-1,2,3,4-tetrahydrothieno[2,3-d]pyrimidin-6-yl]methyl}imidazolidin-2-ylidene]carbamate]  18 nM
9. COCCn1c(=O)n(C2(C)CC2)c(=O)c2c(C)c(CN3CCNC3=NC(=O)OC)sc21 [Example 72, Methyl [1-{[1-(2-methoxyethyl)-5-methyl-3-(1-methylcyclopropyl)-2,4-dioxo-1,2,3,4-tetrahydrothieno[2,3-d]pyrimidin-6-yl]methyl}imidazolidine-2-ylidene]carbamate]  15 nM
10. Cc1c(CN2CCNC2=S)sc2c1c(=O)n(C1CC1)c(=O)n2CC1CCCO1 (racemic) [Example 40, 3-Cyclopropyl-5-methyl-1-(tetrahydrofuran-2-ylmethyl)-6-[(2-thioxoimidazolidin-1-yl)methyl]thieno[2,3-d]pyrimidine-2,4(1H,3H)-dione]  15 nM
11. Cc1c(Cn2nc[nH]c2=O)sc2c1c(=O)n([C@H]1C[C@@H]1C)c(=O)n2CC(F)F [Example 320, 1-(2,2-Difluoroethyl)-5-methyl-3-[(S,2S)-2-methylcyclopropyl]-6-[(5-oxo-4,5-dihydro-1H-1,2,4-triazol-1-yl)methyl]thieno[2,3-d]pyrimidine-2,4(1H,3H)-dione]  13 nM
12. COCCn1c(=O)n(C2CC3(CCC3)C2)c(=O)c2c(C)c(CN3CCNC3=NC#N)sc21 [Example 180, [1-{[1-(2-Methoxyethyl)-5-methyl-2,4-dioxo-3-(spiro[3.3]hept-2-yl)-1,2,3,4-tetrahydrothieno[2,3-d]pyrimidin-6-yl]methyl}imidazolidin-2-ylidene]cyanamide]  13 nM
13. Cc1c(CN2CCNC2=O)sc2c1c(=O)n(C1CC1C)c(=O)n2CC1CCOC1 (single isomer, unassigned) [Example 293, 5-Methyl-3-(2-methylcyclopropyl)-6-[(2-oxoimidazolidin-1-yl)methyl]-1-(tetrahydrofuran-3-ylmethyl)thieno[2,3-d]pyrimidine-2,4(1H,3H)-dione]  12 nM
14. CCn1c(=O)n(C2CC2C)c(=O)c2c(C)c(CN3CCNC3=O)sc21 (racemic) [Example 224, 1-Ethyl-5-methyl-3-(2-methylcyclopropyl)-6-[(2-oxoimidazolidin-1-yl)methyl]thieno[2,3-d]pyrimidine-2,4(1H,3H)-dione]  11 nM
15. COCCn1c(=O)n(C2CC3(CCC3)C2)c(=O)c2c(C)c(CN3CCNC3=O)sc21 [Example 179, 1-(2-Methoxyethyl)-5-methyl-6-[(2-oxoimidazolidin-1-yl)methyl]-3-(spiro[3.3]hept-2-yl)thieno[2,3-d]pyrimidine-2,4(1H,3H)-dione]  10 nM
16. CCCCn1c(=O)n(C2(C)CC2)c(=O)c2c(C)c(CN3CCNC3=O)sc21 [Example 54, 1-Butyl-5-methyl-3-(1-methylcyclopropyl)-6-[(2-oxoimidazolidin-1-yl)methyl]thieno[2,3-d]pyrimidine-2,4(1H,3H)-dione]  7.5 nM
17. Cc1c(CN2CCNC2=O)sc2c1c(=O)n(C1CCCC1)c(=O)n2CCC(F)(F)F [Example 184, 3-Cyclopentyl-5-methyl-6-[(2-oxoimidazolidin-1-yl)methyl]-1-(3,3,3-trifluoropropyl)thieno[2,3-d]pyrimidine-2,4(1H,3H)-dione]  6.9 nM
18. CCCn1c(=O)n(C2CC2C)c(=O)c2c(C)c(CN3CCNC3=O)sc21 (single isomer, unassigned) [Example 228, 5-Methyl-3-(2-methylcyclopropyl)-6-[(2-oxoimidazolidin-1-yl)methyl]-1-propylthieno[2,3-d]pyrimidine-2,4(1H,3H)-dione]  5.8 nM
19. Cc1c(Cn2nc[nH]c2=O)sc2c1c(=O)n([C@H]1C[C@@H]1C)c(=O)n2CCCC(F)(F)F [Example 324, 5-Methyl-3-[(1S,2S)-2-methylcyclopropyl]-6-[(5-oxo-4,5-dihydro-1H-1,2,4-triazol-1-yl)methyl]-1-(4,4,4-trifluorobutyl)thieno[2,3-d]pyrimidine-2,4(1H, 3H)-dione]  5.5 nM
20. Cc1c(CN2CCNC2=O)sc2c1c(=O)n(C1CC3(CCC3)C1)c(=O)n2CCC(F)(F)F [Example 174, 5-Methyl-6-[(2-oxoimidazolidin-1-yl)methyl]-3-(spiro[3.3]hept-2-yl)-1-(3,3,3-trifluoropropyl)thieno[2,3-d]pyrimidine-2,4(1H,3H)-dione]  2.8 nM
21. Cc1c(CN2CCNC2=NC#N)sc2c1c(=O)n(C1CC1C)c(=O)n2CCOC(F)(F)F (single isomer, unassigned) [Example 265, [1-({5-Methyl-3-(2-methylcyclopropyl)-2,4-dioxo-1-[2-(trifluoromethoxy)ethyl]-1,2,3,4-tetrahydrothieno[2,3-d]pyrimidin-6-yl}methyl)imidazolidin-2-ylidene]cyanamide]  1.3 nM
22. CCCn1c(=O)n(C2CC2C)c(=O)c2c(C)c(CN3CCNC3=O)sc21 (single isomer, unassigned) [Example 229, 5-Methyl-3-(2-methylcyclopropyl)-6-[(2-oxoimidazolidin-1-yl)methyl]-1-propylthieno[2,3-d]pyrimidine-2,4(1H,3H)-dione]  1.2 nM
23. Cc1c(CN2CCNC2=O)sc2c1c(=O)n(C1CCC1)c(=O)n2CCC(F)(F)F [Example 110, 3-Cyclobutyl-5-methyl-6-[(2-oxoimidazolidin-1-yl)methyl]-1-(3,3,3-trifluoropropyl)thieno[2,3-d]pyrimidine-2,4(1H,3H)-dione]  0.59 nM
